Key:
Format in all cases: cell-based, human
MM1S cells = assay: IncuCyte Zoom NK cell killing of MM1S; details: E:T 2:1 and 4:1
Description: (§1) FIGS. 7A-7B illustrate the ability of peripheral blood NK cells with or without B7-H3-TriKE to kill myeloma cells in live imaging IncuCyte Zoom assays. FIG. 7A is a graph showing the effects with effector:target (E:T) ratios of 2:1 and 4:1 on MM1S cells. FIG. 7B is a graph showing the effects with effector:target (E:T) ratios of 2:1 and 4:1 on U266 cells.
as §1, with “8A-8D” for “7A-7B”, “8A is a graph showing the effects with effector:target (E:T) ratios of 2:1 and 4:1 on H929 cells. FIG. 8B” for “7A”, “8C is a graph showing the effects with effector:target (E:T) ratios of 2:1 and 4:1 on RPMI-8226 cells. FIG. 8D” for “7B”
(§2) FIGS. 9A-9D illustrate the efficacy of B7-H3-TriKE with the proteasome inhibitor bortezomib (10 nM) and the immunomodulatory drug lenalidomide (5 μM). FIG. 9A is a graph showing the effect of the combination therapy on H929 cells after 48 hours. FIG. 9B is a graph showing the effect of the combination therapy on RPMI-8226 cells after 48 hours. FIG. 9C is a graph showing the effect of the combination therapy on MM1S cells after 48 hours. FIG. 9D is a graph showing the effect of the combination therapy on U266 cells after 48 hours.
(§3) The ability of peripheral blood NK cells with or without B7-H3-TriKE to kill myeloma cells was compared in live imaging IncuCyte Zoom assays with escalating doses of TriKE. Maximal killing occurred with 3 nM concentration.
(§4) The efficacy of B7-H3-TriKE with the proteasome inhibitor bortezomib (10 nM) and the immunomodulatory drug lenalidomide (5 μM) was also tested. Cytotoxicity curves were compared by repeated measures ANOVA and performed in triplicate.

RPMI-8226 cells = assay: IncuCyte Zoom NK cell killing of RPMI-8226; details: E:T 4:1
Description: as §1, with “8A-8D” for “7A-7B”, “8A is a graph showing the effects with effector:target (E:T) ratios of 2:1 and 4:1 on H929 cells. FIG. 8B” for “7A”, “8C is a graph showing the effects with effector:target (E:T) ratios of 2:1 and 4:1 on RPMI-8226 cells. FIG. 8D” for “7B”
as §2, §3, §4

NK cells (CD56+CD3−) = assay: NK cell proliferation in PBMCs, CellTrace Violet dilution
Experimental: FIGS. 2A-2H illustrates that cam1615B7-H3 TriKE induces potent, and specific, natural killer (NK) cell proliferation. Peripheral blood mononuclear cells (PBMCs) were CellTrace Violet labeled and incubated for seven days at 5 nM equimolar concentrations of rhIL-15 or cam1615B7-H3 TriKE. On day 7, the cells were harvested and stained for flow cytometric evaluation. […] FIG. 2B is a graph illustrating pooled data showing the overall proportion of NK cells that proliferated. FIG. 2C is a graph illustrating pooled data showing the proportion of NK cells that highly proliferated (measured as proliferation beyond three divisions). FIG. 2D is a graph illustrating pooled data showing NK cell counts in the cultures (N=9). FIG. 2E is a representative histogram showing T cell (CD56− CD3+) proliferation. FIG. 2F is a graph illustrating pooled data showing the overall proportion of T cells proliferated. FIG. 2G is a graph illustrating pooled data showing the proportion of T cells highly proliferated. […]
The wild-type IL-15 moiety in the cam1615B7-H3 TriKE was designed to induce targeted delivery of a proliferative signal to NK cells. […] At the end of the seven days, cells were harvested and proliferation was evaluated by gating on CD56+CD3− cells. […] Since IL-15 acts on both NK cells and T cells, specificity was evaluated next by gating on T cells (CD56-CD3+). […]

prostate cancer cells = assay: NK cell function against prostate cancer cells (flow cytometry)
Experimental: FIG. 13A is a graph showing percent of NK cells expressing IFNγ against prostate cancer cell targets. FIG. 13B is a graph illustrating the proportion of NK cells undergoing 3 or more rounds of division.
ADCC was measured in a flow cytometry assay by evaluating degranulation via CD107a (lysosomal-associated membrane protein LAMP-1) and intracellular IFNγ production. Upon thawing, normal donor and patient-derived PBMCs or ascites cells were rested overnight (37° C., 5% CO2) in RPMI 1640 media supplemented with 10% fetal calf serum (RPMI-10). The next morning, they were suspended with tumor-target cells or media after washing twice with RPMI-10. Cells were then incubated with TriKEs or controls for 10 min at 37° C. Fluorescein isothiocyate (FITC)-conjugated anti-human CD107a monoclonal antibody (BD Biosciences, San Jose, CA, USA) was then added. Following an hour 37° C. incubation, GolgiStop (1:1500, BD Biosciences) and GolgiPlug (1:1000, BD Biosciences) were added for 3 h. After washing with phosphate buffered saline, the cells were stained with PE/Cy 7-conjugated anti-CD56 mAb, APC/Cy 7-conjugated anti-CD16 mAb, and PE-CF594-conjugated anti-CD3 mAb (BioLegend, San Diego, CA, USA). Cells were incubated for 15 min at 4° C., washed, and fixed with 2% paraformaldehyde. Cells were then permeabilized using an intracellular perm buffer (BioLegend) to evaluate production of IFNγ through detection via aBV650 conjugated anti-human IFNγ antibody (BioLegend). Samples were washed and evaluated in an LSRII flow cytometer (BD Biosciences, San Jose, CA, USA).
As illustrated in FIGS. 12A-12D, 14A-14L and 15A-15D cam1615B7-H3 TriKE targets prostate cancer. The ability of the cam1615B7-H3 TriKE to improve NK cell activity against prostate cancer was tested. All of the prostate cancer cell lines tested expressed B7-H3. For these tests, normal donor PBMCs and PBMCs obtained from metastatic prostate cancer patients were used.

| Substance | NK cell killing of MM1S (MM1S cells) | NK cell killing of RPMI-8226 (RPMI-8226 cells) | overall NK cell proliferation (NK cells (CD56+CD3−); PBMCs, 7 days, 5 nM equimolar) | NK cell proliferation (3 or more rounds of division) vs IL-15 alone (NK cells (CD56+CD3−); compared to IL-15 alone) | NK function (IFNγ) against prostate cancer cell targets vs IL-15 alone (prostate cancer cells; compared to IL-15 alone) | B7-H3 specificity of the signal (prostate cancer cells; with prostate cancer cells) | TriKE-induced signal vs natural cytotoxicity signal (prostate cancer cells; with prostate cancer cells) |
| --- | --- | --- | --- | --- | --- | --- | --- |
| B7-H3 TriKE: camelid nanobodies targeting CD16 and B7-H3 joined by IL-15 and two linkers; sequence table equates the name with cam1615B7-H3 | significantly enhanced killing | enhanced killing | – | – | – | – | – |
| cam1615B7-H3: second-generation TriKE: humanized camelid anti-CD16 VHH, human wild-type IL-15, anti-B7-H3 mAb 376.96 scFv; SEQ ID NO:1 | – | – | overall increase in proliferation that was similar in amplitude to that induced by rhIL-15 | more potent at inducing NK cell proliferation | more potent at inducing NK function than IL-15 alone | specific to B7-H3 | stronger than that induced by a strong natural cytotoxicity signal |

— US20250145715A1, “B7-H3 TARGETING FUSION PROTEINS AND METHODS OF USE THEREOF” (GT Biopharma, Inc., priority 2021, published 2025)
